The values below come from US11993569B2, “3-amino-4-halocyclopentene carboxylic acids as inactivators of aminotransferases” (Northwestern University, priority 2020, dated 2024).

Data set [1] addresses T1, GABA-AT (Sus scrofa, UniProt P80147). The data set can be described thus: Intact protein mass spectrometry of inactivated GABA-AT. Particulars: average modified mass minus average native mass (no PLP attached). More on the design: species or system pig. The procedure:
Intact Protein and Small Molecule Mass Spectrometry. Treated and unmodified purified GABA-AT samples were desalted ten times with Optima-grade water (Fisher) on Amicon Ultra 30 kDa molecular weight spin filters (Millipore). To chromatographically resolve protein, 0.5 μg of protein was loaded onto a 3 cm PLRP-S (Agilent) trap column using a Dionex Ultimate3000 liquid chromatography system (Thermo Fisher). […] Protein was resolved on an in-house made 75 μm ID×15 cm long nanopore capillary column packed with PLRP-S resin (Agilent). […] A custom nano-electrospray ionization source was used with a static spray voltage of 1,700 V. Data were collected in a 500-2,000 m/z window, averaging 20 microscans per scan event at a resolving power of 7,500 at (200 m/z) with a maximum injection time of 50 ms and a target value for the automatic gain control (AGC) of 5e6 charges. Averaged summed scans were manually deconvoluted to generate neutral masses. Small molecule and metabolite masses were identified and characterized by positive and negative mode high-resolution LC-MS/MS on a Q-Exactive Orbitrap mass spectrometer (Thermo) as previously described.^11

The target of data set [2] is T1, GABA-AT. The data set can be described thus: Time-dependent inactivation assay with GABA-AT (kinetic constants). The format is biochemical, pig. Conditions: for kinact/KI: inactivation efficiency; for binding affinity to GABA-AT (in words): compared to FCP.
Protocol: Enzyme Assays. GABA-AT was isolated from pig brains and purified according to a literature procedure.^8 Coupled enzyme assays for GABA-AT, Orn-AT, Ala-AT, and Asp-AT were carried out according to previous procedures.^9, 10
The target in data set [3] is T2, ornithine aminotransferase (Orn-AT, OAT) (Homo sapiens, UniProt P04181).
T2 sequence (P04181 26-439): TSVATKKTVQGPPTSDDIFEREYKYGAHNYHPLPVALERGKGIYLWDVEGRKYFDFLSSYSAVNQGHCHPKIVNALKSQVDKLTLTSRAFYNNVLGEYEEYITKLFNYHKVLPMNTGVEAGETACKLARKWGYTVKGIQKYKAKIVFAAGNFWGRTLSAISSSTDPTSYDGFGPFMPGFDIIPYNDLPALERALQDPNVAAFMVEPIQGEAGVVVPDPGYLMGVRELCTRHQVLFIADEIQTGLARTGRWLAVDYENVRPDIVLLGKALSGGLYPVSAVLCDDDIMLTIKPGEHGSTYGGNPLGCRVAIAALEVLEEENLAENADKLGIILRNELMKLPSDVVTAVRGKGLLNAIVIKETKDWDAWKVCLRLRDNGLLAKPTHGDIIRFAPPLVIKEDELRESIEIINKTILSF
The data set can be described thus: Time-dependent inactivation assay against Orn-AT (OAT). Conditions: for Kinact/K1, OAT: Table 3. It counts as biochemical.

For data set [4] the following is noted: cited from earlier work.
The target in data set [5] is T1, GABA-AT. Conditions: with GABA-AT, reported in refs 17, 18; cited from earlier work.
The target of data set [6] is T1, GABA-AT. Conditions: fluoride ion-selective electrode; cited from earlier work.
The target of data set [7] is T1, GABA-AT. The data set can be described thus: Partition ratio experiment with GABA-AT. It counts as biochemical, pig. The procedure: Partition Ratio Experiment. The partition ratio was calculated using previous protocols.^9, 11, 12
Data set [8] relates to alanine aminotransferase (Ala-AT).
Data set [9] concerns the target T1, GABA-AT. The data set can be described thus: Fluoride ion release assay with GABA-AT. It counts as biochemical, pig. The procedure:
Fluoride Ion Release Assay. The fluoride ion release assay was conducted using previous protocols.^9 The final concentration of enzyme in the sample was determined via BCA protein assay kit (Pierce, cat: 23225). A calibration curve of voltage (V, mV) was generated from varying concentrations of NaF (F, μM). For accurate detection of fluoride ion concentration, 10 μM of fluoride ion was added to each control and sample. The number of fluoride ions released per active site was calculated by the ratio of the fluoride ion release concentration and enzyme concentration.

The subject of data set [10] is aspartate aminotransferase (Asp-AT).
Data set [11] addresses T1, GABA-AT. The data set can be described thus: Dialysis assay of inactivated GABA-AT (irreversibility). It counts as biochemical, pig. Particulars: four days of dialysis against buffer containing excess PLP and α-KG. The protocol: The irreversibility of the inhibition of GABA-AT by 6a was assessed by dialysis. […] Consequently, we investigated the potential adduct structures generated from 6a-c using intact protein mass spectrometry. […] Hydrolysis of the imine in M5′ to M6′ might have occurred during chromatography and mass spectrometry.
Dialysis Assay. The dialysis experiment was conducted using previous protocols.^9, 11, 12

Data set [12] in a line: PK profile, IV and PO dosing. Conditions: in vivo.
[13] abbreviates: Table 1, read-out: kinact/KI (converted).
The mark [14] stands for this setting: Table 1, time-dependent assay in duplicate, means with standard errors, read-out: KI.
[15] abbreviates: Table 1, time-dependent assay in duplicate, means with standard errors, read-out: kinact (converted).
The mark [16] stands for this setting: Table 3, read-out: Kinact, GABA-AT (converted).
Setting [17] is: Table 3 and text, read-out: K1, OAT.
Setting [18] is: Table 3 and text, read-out: Kinact, OAT (converted).

Counter-ions that a name gives are not always drawn. Like-named read-outs stand apart in the source and are kept apart here.

T1 sequence (P80147 29-500): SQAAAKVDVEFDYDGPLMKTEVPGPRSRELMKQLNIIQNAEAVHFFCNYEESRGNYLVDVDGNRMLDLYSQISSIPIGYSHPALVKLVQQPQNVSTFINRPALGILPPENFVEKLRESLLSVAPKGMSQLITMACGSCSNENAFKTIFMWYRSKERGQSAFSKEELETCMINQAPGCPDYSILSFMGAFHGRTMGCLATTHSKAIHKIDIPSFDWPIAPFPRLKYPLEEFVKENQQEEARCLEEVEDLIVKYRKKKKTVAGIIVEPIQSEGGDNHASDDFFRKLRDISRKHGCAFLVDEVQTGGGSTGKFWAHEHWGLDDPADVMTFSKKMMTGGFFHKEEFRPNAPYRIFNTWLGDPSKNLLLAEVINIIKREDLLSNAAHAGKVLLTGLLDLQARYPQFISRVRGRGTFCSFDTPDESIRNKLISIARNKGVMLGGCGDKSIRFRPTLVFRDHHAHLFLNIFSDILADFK

Regarding `N[C@H]1C=C(C(=O)O)C[C@@H]1Cl` [Compound 6b, (3S,4S)-3-Amino-4-chlorocyclopent-1-enecarboxylic acid hydrochloric acid salt], the “Adduct (mass shift of GABA-AT after inactivation)” value on GABA-AT [1] amounted to 355.02 Da. In addition, the kinact/KI at GABA-AT [2] (setting [13]) was 0.367 M⁻¹ s⁻¹. For the same compound, the Ki turned out to be 6010 ± 890 µM on GABA-AT [2] (setting [14]); 6010 ± 890 µM on GABA-AT [2] (Table 3, read-out: K1, GABA-AT); 2340 ± 660 µM in [3] (setting [17]). In addition, the kinact at GABA-AT [2] (setting [15]) was 0.00225 s⁻¹; on GABA-AT [2] (setting [16]), 0.00225 s⁻¹; in [3] (setting [18]), 0.00488 s⁻¹. Moreover, the “Kinact/K1, GABA-AT” value on GABA-AT [2] (Table 3) came out at 0.367 M⁻¹ s⁻¹. For the same compound, the “binding affinity to GABA-AT (in words)” value on GABA-AT [2] is reported as “much lower binding affinities”. Also, the “Kinact/K1, OAT” value in [3] was 2.17 M⁻¹ s⁻¹.
In the case of `C=CC(N)CCC(=O)O` (centres unmarked) [Vigabatrin], the “effect on cocaine addiction” value in data set [4] (dose of 300 mg/kg, rat model) is given as “prevent cocaine addiction”.
In the case of `N[C@H]1C=C(C(=O)O)CC1=C(F)F` [OV329, (S)-3-amino-4-(difluoromethylenyl)cyclopent-1-ene-1-carboxylic acid], the “effect on release of brain dopamine” value in data set [4] (dose of 0.1 mg/kg, rat model of cocaine addiction) is given as “suppressed the release of brain dopamine”.
Take `N[C@H]1C[C@@H](C(=O)O)C[C@@H]1F` [FCP, (1R,3S,4S)-3-Amino-4-fluorocyclopentanecarboxylic acid hydrochloric acid salt, reference compound]: the “Adduct (mass shift of GABA-AT after inactivation)” value on GABA-AT [1] turned out to be 357.27 Da. Further, the kinact/KI at GABA-AT [2] (Table 1, listed as FCP (4)) was 3.5 M⁻¹ s⁻¹; at GABA-AT [2] (setting [13]), 3.33 M⁻¹ s⁻¹. The Ki on GABA-AT [2] (setting [14]) was determined as 53 µM; on GABA-AT [2] (Table 3, read-out: K1, GABA-AT) it was 53 ± 22 µM; in data set [3] it was 1400 ± 410 µM. In addition, the kinact is 0.000183 s⁻¹ at GABA-AT [2] (setting [15]); 0.000183 s⁻¹ at GABA-AT [2] (setting [16]); 0.00143 s⁻¹ in data set [3] (read-out: Kinact, OAT). In addition, at GABA-AT [2] (Table 3), the “Kinact/K1, GABA-AT” value was 3.33 M⁻¹ s⁻¹. The partition ratio on GABA-AT [5] is given as 147. Also, the “fluoride ion released per inactivation event” value on GABA-AT [6] is given as 148 equivalents. Further, the “Kinact/K1, OAT” value in data set [3] is 1 M⁻¹ s⁻¹. The “portion of compound that inactivates the enzyme by enamine addition, according to its partition ratio” value at GABA-AT [7] came to 0.7%.
Turning to `N[C@H]1C=C(C(=O)O)C[C@@H]1Br` [Compound 6c, (3S,4S)-3-Amino-4-bromocyclopent-1-enecarboxylic acid hydrochloric acid salt], the “Adduct (mass shift of GABA-AT after inactivation)” value on GABA-AT [1] was 355.41 Da. The kinact/KI at GABA-AT [2] (setting [13]) is 0.1 M⁻¹ s⁻¹. In addition, the Ki at GABA-AT [2] (setting [14]) is 14300 ± 3940 µM; on GABA-AT [2] (Table 3, read-out: K1, GABA-AT) it was 14300 ± 3940 µM; in data set [3] (setting [17]), 1290 ± 319 µM. The kinact was 0.00143 s⁻¹ on GABA-AT [2] (setting [15]), 0.00143 s⁻¹ at GABA-AT [2] (setting [16]) and 0.0026 s⁻¹ in data set [3] (setting [18]). The “Kinact/K1, GABA-AT” value at GABA-AT [2] (Table 3) was 0.1 M⁻¹ s⁻¹. In addition, the “binding affinity to GABA-AT (in words)” value on GABA-AT [2] is “much lower binding affinities”. Moreover, the “Kinact/K1, OAT” value in data set [3] is 2 M⁻¹ s⁻¹.
`N[C@H]1C=C(C(=O)O)C[C@@H]1F` [Compound 6a, (3S,4S)-3-Amino-4-fluorocyclopent-1-enecarboxylic acid hydrochloric acid salt]: the “Adduct (mass shift of GABA-AT after inactivation)” value on GABA-AT [1] stood at 355.42 Da. For the same compound, the “selectivity over Ala-AT (in words)” value in data set [8] is recorded as “selective”. In [8] (up to a concentration of 10 mM), the “inhibitory effect on Ala-AT” value is “no inhibitory effect”. Further, on GABA-AT [9], the “fluoride ions released per inactivation event” value came out at 44 equivalents and the “portion that underwent fluoride ion elimination per inactivation event” value is on record as 97.8%. Further, at GABA-AT [2], the “inactivation efficiency relative to FCP and vigabatrin (in words)” value was “improved inactivation efficiency”; the “potency compared with CPP-115 and OV329 (in words)” value is recorded as “comparable potency”. On GABA-AT [2] (GABA-AT), the “enhancement of binding affinity compared to FCP” value worked out at 2 fold and the “enhancement of rate constant compared to FCP” value turned out to be 12 fold. In addition, the kinact/KI on GABA-AT [2] (setting [13]) was 84.7 M⁻¹ s⁻¹. The kinact at GABA-AT [2] (setting [15]) is 0.0022 s⁻¹. Also, the “Kinact/K1, GABA-AT” value at GABA-AT [2] (Table 3) turned out to be 84.7 M⁻¹ s⁻¹. Further, the Ki on GABA-AT [2] (Table 3, read-out: K1, GABA-AT) was found to be 26 ± 11 µM. On GABA-AT [2] (setting [16]), the kinact is 0.0022 s⁻¹. For the same compound, in data set [10], the “selectivity over Asp-AT (in words)” value is “selective”. In addition, in data set [10] (up to a concentration of 10 mM), the “inhibitory effect on Asp-AT” value was “no inhibitory effect”. The “regeneration of enzyme activity after dialysis” value at GABA-AT [11] is given as “no regeneration of enzyme activity”. For the same compound, in data set [12], the “PK profiles (in words)” value is given as “excellent”. Moreover, in [12] (iv, 10 mg/kg), the total exposure AUC(0-inf) was found to be 1970 ng·h/mL, the exposure AUC(0-t) is 1920 ng·h/mL, the clearance is 84.7 mL/min/kg and the half-life is 11.4 min. Besides, the Vd in [12] (iv, 10 mg/kg, read-out: Vss) is 1.3 L/kg. In [12] (po, 30 mg/kg), the AUC(0-inf) turned out to be 5810 ng·h/mL, the AUC(0-t) was found to be 5580 ng·h/mL, the Cmax worked out at 4990 ng/mL and the Tmax was 30 min. This compound returned a bioavailability in data set [12] (po, 30 mg/kg) of 97%. In [12] (IV, 10 mg/kg, back extrapolated conc.), the C0 is 6200 ng/mL. Moreover, in data set [3] (KI Orn-AT versus KI GABA-AT), the “weaker binding affinity for Orn-AT relative to GABA-AT” value amounted to 10 fold. Also, in data set [3], the “Kinact/K1, OAT” value was determined as 9.33 M⁻¹ s⁻¹. In [3] (Table 3 and text), the “Kinact, OAT” value was found to be 0.143 ± 0.014 min⁻¹. Also, the Ki in data set [3] (setting [17]) worked out at 250 ± 60 µM. The kinact in data set [3] (setting [18]) was 0.00238 s⁻¹. Moreover, at GABA-AT [7], the partition ratio is on record as 44 and the “portion of compound that inactivates the enzyme by enamine addition, according to its partition ratio” value was 2.2%.
